{"source": "patent US20050272784A1", "about": "(priority 2004, published 2005)", "data": [{"test_system": "type III protein secretion system of P. aeruginosa PA103 (ExoU secretion)", "assay": "Tertiary assay: Type III-dependent secretion of ExoU by P. aeruginosa PA103", "assay_type": "cell-based", "details": "Pseudomonas aeruginosa, ExoU secreted into extracellular medium", "description": "Tertiary assay: inhibition of Type III protein secretion of effectors from a Pseudomonas aeruginosa system. Type III protein secretion is used by P. aeruginosa to secrete several essential virulence determinants. One effector of the type III protein secretion system of P. aeruginosa PA103 is the virulence determinants ExoU.\nThe amount of Type III-dependent secretion of ExoU by P. aeruginosa PA103 can be determined in a cell-based assay by quantification of the 73.9 kDa ExoU protein scereted into the extracellular medium. Such quantitation can be achieved by growing strain PA103 in a deferrated medium in the presence of nitrilotriacetic acid (an inducer of Type III protein secretion in P. aeruginosa) and either in the presence or absence of putative inhibitors. After a prolonged growth period, the cells are sedimented and the supernatants concentrated by ammonium sulfate precipitation. The proteins in the resuspended pellets are separated by electrophoresis on SDS-polyacrylamide gels. After staining gels with Colloidal Blue™, the 73.9 kDa ExoU band is quantitated by scanning through an imager. The effects of inhibitors on the intensity of the ExoU band may be measured relative to that of untreated controls.", "units": {"IC50": "µM"}, "values": [{"smiles": "N#Cc1ccc(-c2oc(-c3ccc(C(F)(F)F)cc3)nc2C(=O)NC(CSCc2ccccc2)C(=O)O)cc1", "note": "(stereo in doubt) [Compound 1, (R)-3-Benzylsulfanyl-2-{[5-(4-cyanophenyl)-2-(4-trifluoromethylphenyl)oxazole-4-carbonyl]amino}propionic acid]", "IC50": 70.7}, {"smiles": "O=C(NC(Cc1ccc(Cl)cc1)C(=O)O)c1[nH]c(-c2ccc(-c3ccccc3)cc2)nc1-c1cccc(C(F)(F)F)c1", "note": "(centres unmarked) [Compound 3, 2-{[2-Biphenyl-4-yl-5-(3-trifluoromethylphenyl)-3H-imidazole-4-carbonyl]amino}-3-(4-chlorophenyl)propionic acid]", "IC50": 20.6}, {"smiles": "O=C(N[C@H](Cc1ccc(Cl)cc1)C(=O)O)c1nc(-c2ccc(-c3ccccc3)cc2)nn1-c1cccc(C(F)(F)F)c1", "note": "[Compound 4, (R)-2-{[5-Biphenyl-4-yl-2-(3-trifluoromethylphenyl)-2H-[1,2,4]triazole-3-carbonyl]amino}-3-(4-chlorophenyl)propionic acid]", "IC50": 56.6}, {"smiles": "O=C(N[C@@H](CSCc1ccccc1)C(=O)O)c1nc(-c2ccc(C(F)(F)F)cc2)oc1-c1ccc(-c2ccccc2)cc1", "note": "[Compound 5, (R)-3-Benzylsulfanyl-2-{[5-biphenyl-4-yl-2-(4-trifluoromethylphenyl)oxazole-4-carbonyl]amino}propionic acid]", "IC50": 12.5}, {"smiles": "O=C(N[C@@H](CSCc1ccccc1)C(=O)O)c1nc(-c2ccc(C(F)(F)F)cc2)sc1-c1ccc(OCc2ccccc2)cc1", "note": "[Compound 7, (R)-2-{[5-(4-Benzyloxyphenyl)-2-(4-trifluoromethylphenyl)thiazole-4-carbonyl]amino}-3-benzylsulfanylpropionic acid]", "IC50": 54.4}, {"smiles": "O=C(N[C@@H](CSCc1ccccc1)C(=O)O)c1nc(-c2ccc(Oc3ccccc3)cc2)oc1-c1ccc(Cl)c(Cl)c1", "note": "[Compound 8, (R)-3-Benzylsulfanyl-2-{[5-(3,4-dichlorophenyl)-2-(4-phenoxyphenyl)oxazole-4-carbonyl]amino}propionic acid]", "IC50": 45.4}, {"smiles": "O=C(N[C@@H](CSCc1ccccc1)C(=O)O)c1nc(-c2ccc(C(F)(F)F)cc2)oc1C#Cc1ccccc1", "note": "[Compound 9, (R)-3-Benzylsulfanyl-2-{[5-phenylethynyl-2-(4-trifluoromethylphenyl)oxazole-4-carbonyl]amino}propionic acid]", "IC50": 26.7}, {"smiles": "O=C(N[C@@H](COCc1ccccc1)C(=O)O)c1nc(-c2ccc(C(F)(F)F)cc2)oc1C#Cc1ccccc1", "note": "[Compound 10, (S)-3-Benzyloxy-2-{[5-phenylethynyl-2-(4-trifluoromethylphenyl)oxazole-4-carbonyl]amino}propionic acid]", "IC50": 42.4}, {"smiles": "O=C(N[C@@H](COCc1ccccc1)C(=O)O)c1nc(-c2ccc(Oc3ccccc3)cc2)oc1-c1ccc(Cl)c(Cl)c1", "note": "[Compound 13, (S)-3-Benzyloxy-2-{[5-(3,4-dichlorophenyl)-2-(4-phenoxyphenyl)-oxazole-4-carbonyl]amino}propionic acid]", "IC50": 19.3}, {"smiles": "O=C(N[C@@H](CSCc1ccccc1)C(=O)O)c1nc(-c2ccc(C(F)(F)F)cc2)oc1-c1ccc(N2CCCCC2)nc1", "note": "[Compound 14, (R)-3-Benzylsulfanyl-2-{[5-(3,4,5,6-tetrahydro-2H-[1,2′]bipyridin-5′-yl)-2-(4-trifluoromethylphenyl)oxazole-4-carbonyl]amino}propionic acid]", "IC50": 62.8}, {"smiles": "O=C(NC(Cc1ccc(Cl)cc1)C(=O)O)c1nc(-c2ccc(-c3ccccc3)cc2)oc1-c1cccc(C(F)(F)F)c1", "note": "(centres unmarked) [Compound 15, 2-{[2-Biphenyl-4-yl-5-(3-trifluoromethylphenyl)oxazole-4-carbonyl]amino}-3-(4-chlorophenyl)propionic acid]", "IC50": 79.9}, {"smiles": "CN(C(=O)c1nc(-c2ccc(C(F)(F)F)cc2)oc1-c1ccc(-c2ccccc2)cc1)[C@@H](CSCc1ccccc1)C(=O)O", "note": "[Compound 16]", "IC50": 80.9}, {"smiles": "O=C(N[C@@H](CSCc1ccccc1)C(=O)O)c1nc(-c2ccc(C(F)(F)F)cc2)oc1-c1ccc(OCc2ccccc2)cc1", "note": "[Compound 17, (R)-2-{[5-(4-Benzyloxyphenyl)-2-(4-trifluoromethylphenyl)oxazole-4-carbony]amino}-3-benzylsulfanylpropionic acid]", "IC50": 34.3}, {"smiles": "O=C(N[C@@H](CSCc1ccccc1)C(=O)O)c1nc(-c2ccc(C(F)(F)F)cc2)oc1-c1ccc(-c2cccnc2)cc1", "note": "[Compound 18, (R)-3-Benzylsulfanyl-2-{[5-(4-pyridin-3-yl-phenyl)-2-(4-trifluoromethylphenyl)-oxazole-4-carbonyl]amino}propionic acid]", "IC50": 89.1}, {"smiles": "O=C(N[C@@H](CSCc1ccccc1)C(=O)O)c1nc(-c2ccc(C(F)(F)F)cc2)oc1-c1ccc(-c2ccncc2)cc1", "note": "[Compound 19, (R)-3-Benzylsulfanyl-2-{[5-(4-pyridin-4-yl-phenyl)-2-(4-trifluoromethylphenyl)oxazole-4-carbonyl]amino}propionic acid]", "IC50": 78.2}, {"smiles": "O=C(N[C@@H](COCc1ccccc1)C(=O)O)c1nc(-c2ccc(C(F)(F)F)cc2)oc1-c1cc2ccccc2s1", "note": "[Compound 22, (S)-2-{[5-Benzo[b]thien-2-yl-2-(4-trifluoromethylphenyl)oxazole-4-carbonyl]amino}-3-benzyloxypropionic acid]", "IC50": 82.4}, {"smiles": "O=C(N[C@@H](CSCc1ccccc1)C(=O)O)c1nc(-c2ccc(C(F)(F)F)cc2)oc1-c1cc2ccccc2s1", "note": "[Compound 23, (R)-2-{[5-Benzo[b]thien-2-yl-2-(4-trifluoromethylphenyl)oxazole-4-carbonyl]amino}-3-benzylsulfanylpropionic acid]", "IC50": 40.7}, {"smiles": "O=C(N[C@@H](COCc1ccccc1)C(=O)O)c1nc(-c2ccc(C(F)(F)F)cc2)oc1-c1ccc2ccccc2n1", "note": "[Compound 27, (S)-3-Benzyloxy-2-{[5-quinolin-2-yl-2-(4-trifluoromethylphenyl)oxazole-4-carbonyl]amino}propionic acid]", "IC50": 93.1}, {"smiles": "O=C(N[C@@H](COCc1ccccc1)C(=O)O)c1nc(-c2ccc(C(F)(F)F)cc2)oc1-c1ccc(Cl)nc1", "note": "[Compound 29, (S)-3-Benzyloxy-2-{[5-(6-chloropyridin-3-yl)-2-(4-trifluoromethylphenyl)oxazole-4-carbonyl]amino}propionic acid]", "IC50": 73.4}, {"smiles": "O=C(N[C@@H](CSCc1ccccc1)C(=O)O)c1nc(-c2ccc(C(F)(F)F)cc2)oc1-c1ccc(-c2ccccc2)nc1", "note": "[Compound 33, (R)-3-Benzylsulfanyl-2-{[5-(6-phenylpyridin-3-yl)-2-(4-trifluoromethylphenyl)oxazole-4-carbonyl]amino}propionic acid]", "IC50": 48.9}, {"smiles": "O=C(N[C@@H](CSCc1ccccc1)C(=O)O)c1nc(-c2ccc(C(F)(F)F)cc2)oc1-c1ccc(-c2ccc(F)cc2)nc1", "note": "[Compound 34, (R)-3-Benzylsulfanyl-2-{[5-[6-(4-fluorophenyl)pyridin-3-yl]-2-(4-trifluoromethylphenyl)oxazole-4-carbonyl]amino}propionic acid]", "IC50": 47.4}, {"smiles": "O=C(N[C@@H](COCc1ccccc1)C(=O)O)c1nc(-c2ccc(C(F)(F)F)cc2)oc1-c1cc2ccccc2o1", "note": "[Compound 35, (S)-2-{[5-Benzofuran-2-yl-2-(4-trifluoromethylphenyl)oxazole-4-carbonyl]amino}-3-benzyloxypropionic acid]", "IC50": 79.8}, {"smiles": "O=C(N[C@@H](COCc1ccccc1)C(=O)O)c1nc(-c2ccc(Oc3ccccc3)cc2)oc1-c1ccc(Cl)nc1Cl", "note": "[Compound 37, (S)-3-Benzyloxy-2-{[5-(2,6-dichloropyridin-3-yl)-2-(4-phenoxyphenyl)oxazole-4-carbonyl]amino}propionic acid]", "IC50": 91.7}, {"smiles": "O=C(NC(Cc1ccc(Cl)cc1)C(=O)O)c1nc(-c2ccc(Oc3ccccc3)cc2)oc1-c1cnc(Cl)c(Cl)c1", "note": "(centres unmarked) [Compound 41, 3-(4-Chlorophenyl)-2-{[5-(5,6-dichloropyridin-3-yl)-2-(4-phenoxyphenyl)oxazole-4-carbonyl]amino}propionic acid]", "IC50": 51.6}, {"smiles": "O=C(NC(Cc1ccc(Cl)cc1)C(=O)O)c1nc(-c2ccc(C(F)(F)F)cc2)oc1-c1cc2ccccc2o1", "note": "(centres unmarked) [Compound 42, 2-{[5-Benzofuran-2-yl-2-(4-trifluoromethylphenyl)oxazole-4-carbonyl]amino}-3-(4-chlorophenyl)propionic acid]", "IC50": 27.1}, {"smiles": "O=C(N[C@@H](CSCc1ccccc1)C(=O)O)c1nc(-c2ccc(-c3ccccc3)cc2)oc1-c1cnc(Cl)c(Cl)c1", "note": "[Compound 43, (R)-3-Benzylsulfanyl-2-{[2-biphenyl-4-yl-5-(5,6-dichloropyridin-3-yl)oxazole-4-carbonyl]amino}propionic acid]", "IC50": 45.7}, {"smiles": "O=C(NC(Cc1ccc(Cl)cc1)C(=O)O)c1nc(-c2ccc(-c3ccccc3)cc2)oc1-c1cnc(Cl)c(Cl)c1", "note": "(centres unmarked) [Compound 45, 2-{[2-Biphenyl-4-yl-5-(5,6-dichloropyridin-3-yl)oxazole-4-carbonyl]amino}-3-(4-chlorophenyl)propionic acid]", "IC50": 51.8}, {"smiles": "Cn1cc(-c2oc(-c3ccc(C(F)(F)F)cc3)nc2C(=O)NC(Cc2ccc(Cl)cc2)C(=O)O)c2ccccc21", "note": "(centres unmarked) [Compound 48, 3-(4-Chlorophenyl)-2-{[5-(1-methyl-1H-indol-3-yl)-2-(4-trifluoromethylphenyl)oxazole-4-carbonyl]amino}propionic acid]", "IC50": 73.5}, {"smiles": "Cc1nc(-c2ccc(-c3oc(-c4ccc(C(F)(F)F)cc4)nc3C(=O)N[C@@H](CSCc3ccccc3)C(=O)O)cc2)no1", "note": "[Compound 51, (R)-3-Benzylsulfanyl-2-{[5-[4-(5-methyl[1,2,4]oxadiazol-3-yl)phenyl]-2-(4-trifluoromethylphenyl)oxazole-4-carbonyl]amino}propionic acid]", "IC50": 19.5}]}]}
